Reference: patent US20120122870A1, “Treatment Of Ischemia-Reperfusion Injury” (MUSC FOUNDATION FOR RESEARCH DEVELOPMENT, priority 2009, published 2012)
“Also recorded” adds a separate entry of the source.

Tests used:
[1] = tested on: kidney damage after severe ischemia-reperfusion; assay: Kidney histology (H&E) after severe kidney IR; assay type: in vivo, mice; details: 4 and 48 hours post ischemia and reperfusion
Description: Kidneys from the animals described with respect to FIG. 4 were sectioned and stained with H&E for histological evaluation. […] Kidney sections were quantitatively scored on a scale of 1 to 3 for five parameters (tubule cell swelling, tubular dilatation, edema, epithelial necrosis and tubular casts) that were added to generate a total score (FIG. 6).

hepatic warm IR in mice = assay: Survival after hepatic warm IR with removal of non-ischemic lobes; assay type: in vivo; details: 1 h-ischemia, non-ischemic lobes removed, observed 7 days
Text: To evaluate the effects of ABC294640 on survival of mice after IR, the non-ischemic liver lobes were removed after the vascular clamp was opened and mice were observed 7 days for survival. This procedure mimics total LT.

TNFα mRNA = TNFα mRNA by quantitative real time PCR after hepatic warm IR; assay type: in vivo, mice
Description: ABC294640 prevents hepatic warm IR-induced tumor necrosis factor-α (TNFα) formation and NF-κB activation. Toxic cytokine formation and inflammatory processes play important roles in IR injury, and S1P is well known to promote inflammation. Accordingly, we investigated whether ABC294640 affects the expression of the pro-inflammatory cytokine TNFα after IR. Livers were harvested at 2 h after reperfusion and TNFα mRNA was detected by quantitative real time PCR. TNFα mRNA increased ˜10-fold after IR (FIG. 15, upper). ABC294640 blunted this increase in TNFα mRNA by ˜50%. NF-κB activation is involved in inflammatory cytokine formation and upregulation of adhesion molecules. After IR, phosphorylation of p65 subunit of NF-κB increased markedly, indicating NF-κB activation. This effect was also blunted by ABC294640 (FIG. 15 lower) which is consistent with our previous studies of NF-κB activation. Quantitative real-time PCR (qPCR): Total RNA in liver homogenates was isolated using a QIAGEN RNeasy kit and quantified using a NanoDrop ND-1000 Spectrophotometer. cDNAs of mRNA of interest were generated using the Bio-Rad iScript cDNA Synthesis kit. qPCR was performed on a BioRAD MyiQ single-color real-time PCR detection system. The primers used for each gene were designed using Primer 3 software. […] Data were analyzed with MyiQ software. […]

[2] = tested on: phosphorylated p65 subunit of NF-κB; assay: Phosphorylated p65 NF-κB immunoblot after hepatic warm IR; assay type: in vivo, mice; details: livers harvested 2 h after IR
Description: ABC294640 prevents hepatic warm IR-induced tumor necrosis factor-α (TNFα) formation and NF-κB activation. Toxic cytokine formation and inflammatory processes play important roles in IR injury, and S1P is well known to promote inflammation. Accordingly, we investigated whether ABC294640 affects the expression of the pro-inflammatory cytokine TNFα after IR. Livers were harvested at 2 h after reperfusion and TNFα mRNA was detected by quantitative real time PCR. TNFα mRNA increased ˜10-fold after IR (FIG. 15, upper). ABC294640 blunted this increase in TNFα mRNA by ˜50%. NF-κB activation is involved in inflammatory cytokine formation and upregulation of adhesion molecules. After IR, phosphorylation of p65 subunit of NF-κB increased markedly, indicating NF-κB activation. This effect was also blunted by ABC294640 (FIG. 15 lower) which is consistent with our previous studies of NF-κB activation. Western blotting: Briefly, liver tissue was homogenized in a 0.1% Triton-X100 buffer containing a protease inhibitor cocktail, and the extract was centrifuged at 12,000×g for 10 min at 4° C. […] Expression of the protein of interest was quantified by the density of Western blot images by densitometry and standardized by house keeping gene actin.

[3] = tested on: lean liver transplantation in rats; assay: Lean liver transplantation, serum ALT; assay type: in vivo; details: 60 μM in UW and Ringer's solutions plus 50 mg/kg i.p. to recipients; 6 h after LT; 8 h cold storage
Description: ABC294640 decreases graft injury after lean LT. To investigate whether ABC294640 protects liver grafts after LT, a pilot study was conducted. Lean livers were explanted and stored in UW solution for 8 h. ABC294640 was added to the UW solution and the lactated Ringer's post-storage solution at a concentration of 60 μM and injected into the recipients (50 mg/kg, i.p.) immediately after transplantation. […] Liver transplantation: Inbred male Lewis rats (200-250 g) were used to prevent immunological interference. Under ether anesthesia, heparin (200 IU) in 0.5 mL of lactated Ringer's solution was injected into the subhepatic vena cava. A 4-mm long stent prepared from polyethylene tubing (PE50) was inserted into the common bile duct and secured with a 6-0 suture. Livers were then flushed with 5 ml of ice-cold UW cold storage solution. Venous cuffs prepared from 14-gauge i.v. catheters were placed in the subhepatic vena cava and the portal vein. Liver explants were stored in UW solution (0-1° C.) for 4-24 h, rinsed with lactated Ringer's solution and then implanted (n=10 in each group). […] Clinical chemistry: Blood samples were collected from the vena cava at various times, and ALT and bilirubin were measured enzymatically using analytic kits from Pointe Scientific.

## O=C(NCc1ccncc1)C12CC3CC(C1)CC(c1ccc(Cl)cc1)(C3)C2 [ABC294640, 3-(4-chlorophenyl)-N-(pyridin-4-ylmethyl)adamantane-1-carboxamide]
[1]
  kidney histological damage vs vehicle: protects against microscopic damage; also recorded: much less damage
Hepatic warm IR in mice
  survival / acute liver failure after IR (in words): significantly different; also recorded: completely prevented acute liver failure
Hepatic warm IR in mice; pretreated mice
  survival after IR: 100%
TNFα mRNA; livers harvested 2 h after IR
  TNFα formation after hepatic IR (in words): blunts TNFα formation
TNFα mRNA; livers harvested 2 h after reperfusion
  blunting of the increase in TNFα mRNA: ~50%
[2]
  phosphorylation of p65 subunit of NF-κB (NF-κB activation): blunts
[3]
  serum ALT after lean LT vs vehicle: markedly attenuated; also recorded: decreases ALT release
